Reference: patent publication US20230310428A1, “EGFR INHIBITOR AND PREPARATION METHOD AND USE THEREOF” (HONGYUN BIOTECH CO., LTD., priority 2020, published 2023)
Where two headings read alike, the source gives them in different places.

Legend:
Assay in all cases: Growth inhibitory activity of compounds on BaF3 cell lines stably transfected with kinase (MTS, 48 h)
Assay type in all cases: cell-based
[1] = target: T1, various mutants of kinase EGFR (BaF3 cell lines stably transfected with kinase) (Homo sapiens, UniProt P00533, C797S/L858R/T790M)
T1 construct: expressed in transfected cells; host or cells: BaF3
Procedure, shortened: (§1)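 OD at 490 nm after 1-4 h MTS/PES incubation gave growth inhibition relative to 0.1% DMSO negative and cell-free medium blank. Compounds: 8-point 1/3 dilution from 10 µM, 48 h, 37 °C. IC50 from inhibition curves; duplicates.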

[2] = target: T2, various mutants of kinase EGFR (BaF3 cell lines stably transfected with kinase) (Homo sapiens, UniProt P00533, T790M/C797S, form not given)
T2 construct: other: BaF3 cells stably transfected with EGFR Δ19Del/T790M/C797S; MTS, 48; other: BaF3 cell line stably transfected with EGFR Δ19Del/T790M/C7
Procedure, shortened: as §1

[3] = target: T3, various mutants of kinase EGFR (BaF3 cell lines stably transfected with kinase) (Homo sapiens, UniProt P00533, L858R/T790M)
T3 construct: expressed in transfected cells; host or cells: BaF3
Procedure, shortened: as §1

[4] = target: T4, various mutants of kinase EGFR (BaF3 cell lines stably transfected with kinase) (Homo sapiens, UniProt P00533, L858R)
T4 construct: expressed in transfected cells; host or cells: BaF3
Procedure, shortened: as §1

[5] = target: T5, various mutants of kinase EGFR (BaF3 cell lines stably transfected with kinase) (Homo sapiens, UniProt P00533)
T5 construct: other: BaF3 cells stably transfected with EGFR Δ19Del; MTS, 48 h; other: BaF3 cell line stably transfected with EGFR Δ19Del
Procedure, shortened: as §1

[6] = target: T6, various mutants of kinase EGFR (BaF3 cell lines stably transfected with kinase) (Homo sapiens, UniProt P00533, T790M, form not given)
T6 construct: other: BaF3 cells stably transfected with EGFR Δ19Del/T790M; MTS, 48 h; other: BaF3 cell line stably transfected with EGFR Δ19Del/T790M; MTS, 48
Procedure, shortened: as §1

[7] = BaF3 cell line stably transfected with EGFR L858R/T790M/C797S, read-out: L858R/T790M/ C797S growth inhibitory activity IC50
[8] = BaF3 cell line stably transfected with EGFR Δ19Del/T790M/C797S, read-out: Δ19Del/T790M/ C797S growth inhibitory activity IC50
[9] = BaF3 cell line stably transfected with EGFR L858R/T790M, read-out: L858R/ T790M growth inhibitory activity IC50
[10] = BaF3 cell line stably transfected with EGFR L858R, read-out: L858R growth inhibitory activity IC50
[11] = BaF3 cell line stably transfected with EGFR Δ19Del, read-out: Δ19Del growth inhibitory activity IC50
[12] = BaF3 cell line stably transfected with EGFR Δ19Del/T790M, read-out: Δ19Del/ T790M growth inhibitory activity IC50
[13] = BaF3 cells stably transfected with EGFR L858R/T790M/C797S, read-out: IC50, growth inhibition, L858R/T790M/C797S
[14] = BaF3 cells stably transfected with EGFR Δ19Del/T790M/C797S, read-out: IC50, growth inhibition, Δ19Del/T790M/C797S
[15] = BaF3 cells stably transfected with EGFR L858R/T790M, read-out: IC50, growth inhibition, L858R/T790M
[16] = BaF3 cells stably transfected with EGFR L858R, read-out: IC50, growth inhibition, L858R
[17] = BaF3 cells stably transfected with EGFR Δ19Del, read-out: IC50, growth inhibition, Δ19Del
[18] = BaF3 cells stably transfected with EGFR Δ19Del/T790M, read-out: IC50, growth inhibition, Δ19Del/T790M

T5 sequence (P00533 with tags, fused parts or gaps DEL746-750): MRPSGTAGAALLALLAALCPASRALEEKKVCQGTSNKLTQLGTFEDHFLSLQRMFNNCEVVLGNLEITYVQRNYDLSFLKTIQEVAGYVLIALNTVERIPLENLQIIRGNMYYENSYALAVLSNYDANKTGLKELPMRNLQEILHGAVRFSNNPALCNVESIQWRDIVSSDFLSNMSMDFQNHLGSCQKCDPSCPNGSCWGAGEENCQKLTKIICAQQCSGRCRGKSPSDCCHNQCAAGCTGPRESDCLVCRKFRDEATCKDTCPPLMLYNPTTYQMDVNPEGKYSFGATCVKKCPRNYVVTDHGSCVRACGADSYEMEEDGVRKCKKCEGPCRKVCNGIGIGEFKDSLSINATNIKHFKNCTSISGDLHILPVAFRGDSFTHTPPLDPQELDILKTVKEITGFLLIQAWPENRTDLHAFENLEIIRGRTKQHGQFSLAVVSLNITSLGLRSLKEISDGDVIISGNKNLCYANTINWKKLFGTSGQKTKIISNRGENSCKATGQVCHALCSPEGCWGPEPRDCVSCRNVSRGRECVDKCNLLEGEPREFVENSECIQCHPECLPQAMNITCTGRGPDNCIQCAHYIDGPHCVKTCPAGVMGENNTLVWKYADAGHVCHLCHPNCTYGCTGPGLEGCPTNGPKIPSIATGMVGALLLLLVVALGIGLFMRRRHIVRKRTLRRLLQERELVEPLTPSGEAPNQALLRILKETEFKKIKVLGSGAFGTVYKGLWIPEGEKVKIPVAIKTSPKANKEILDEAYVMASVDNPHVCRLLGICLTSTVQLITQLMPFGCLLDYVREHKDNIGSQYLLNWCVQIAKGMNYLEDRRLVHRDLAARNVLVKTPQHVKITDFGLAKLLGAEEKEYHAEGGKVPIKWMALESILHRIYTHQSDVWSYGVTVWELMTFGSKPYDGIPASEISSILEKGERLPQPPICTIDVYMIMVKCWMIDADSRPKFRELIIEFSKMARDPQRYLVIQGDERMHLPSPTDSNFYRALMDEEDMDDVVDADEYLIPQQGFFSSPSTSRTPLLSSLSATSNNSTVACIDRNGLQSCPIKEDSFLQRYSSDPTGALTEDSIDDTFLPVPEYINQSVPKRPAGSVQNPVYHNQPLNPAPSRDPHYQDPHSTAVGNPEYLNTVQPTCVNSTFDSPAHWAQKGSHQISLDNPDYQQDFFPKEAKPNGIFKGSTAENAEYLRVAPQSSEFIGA
T6 sequence (P00533 with tags, fused parts or gaps DEL746-750/T790M, form open): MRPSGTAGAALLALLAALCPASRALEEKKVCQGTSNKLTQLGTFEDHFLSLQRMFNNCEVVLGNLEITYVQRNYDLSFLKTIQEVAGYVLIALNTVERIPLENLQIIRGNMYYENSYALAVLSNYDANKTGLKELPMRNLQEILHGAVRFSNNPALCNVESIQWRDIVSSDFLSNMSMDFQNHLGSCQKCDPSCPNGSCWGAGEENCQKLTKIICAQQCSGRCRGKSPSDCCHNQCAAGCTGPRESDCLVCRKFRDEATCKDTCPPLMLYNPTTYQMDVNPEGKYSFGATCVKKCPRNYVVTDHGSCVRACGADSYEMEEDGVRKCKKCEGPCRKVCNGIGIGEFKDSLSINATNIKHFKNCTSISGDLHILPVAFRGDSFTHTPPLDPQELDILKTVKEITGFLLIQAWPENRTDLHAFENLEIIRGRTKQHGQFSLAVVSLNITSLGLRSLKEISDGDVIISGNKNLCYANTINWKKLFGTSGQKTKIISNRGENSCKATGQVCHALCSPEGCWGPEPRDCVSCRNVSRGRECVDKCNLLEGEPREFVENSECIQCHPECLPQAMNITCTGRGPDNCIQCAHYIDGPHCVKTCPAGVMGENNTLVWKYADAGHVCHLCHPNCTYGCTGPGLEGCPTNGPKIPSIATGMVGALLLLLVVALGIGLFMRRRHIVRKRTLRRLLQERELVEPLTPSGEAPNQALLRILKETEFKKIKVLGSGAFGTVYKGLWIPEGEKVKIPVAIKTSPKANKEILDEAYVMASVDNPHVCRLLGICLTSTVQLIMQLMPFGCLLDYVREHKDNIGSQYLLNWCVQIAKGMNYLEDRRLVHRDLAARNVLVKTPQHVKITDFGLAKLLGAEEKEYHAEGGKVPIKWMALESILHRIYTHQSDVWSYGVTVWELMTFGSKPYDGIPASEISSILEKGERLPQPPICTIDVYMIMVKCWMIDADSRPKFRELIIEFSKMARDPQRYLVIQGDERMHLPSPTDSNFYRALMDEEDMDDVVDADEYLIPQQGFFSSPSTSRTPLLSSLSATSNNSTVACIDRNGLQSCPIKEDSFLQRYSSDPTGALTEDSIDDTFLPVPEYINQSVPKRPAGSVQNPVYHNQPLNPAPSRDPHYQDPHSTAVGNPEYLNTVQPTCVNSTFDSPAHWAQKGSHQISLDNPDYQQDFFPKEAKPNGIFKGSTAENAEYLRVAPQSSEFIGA
T4 sequence (P00533 25-1210 L858R): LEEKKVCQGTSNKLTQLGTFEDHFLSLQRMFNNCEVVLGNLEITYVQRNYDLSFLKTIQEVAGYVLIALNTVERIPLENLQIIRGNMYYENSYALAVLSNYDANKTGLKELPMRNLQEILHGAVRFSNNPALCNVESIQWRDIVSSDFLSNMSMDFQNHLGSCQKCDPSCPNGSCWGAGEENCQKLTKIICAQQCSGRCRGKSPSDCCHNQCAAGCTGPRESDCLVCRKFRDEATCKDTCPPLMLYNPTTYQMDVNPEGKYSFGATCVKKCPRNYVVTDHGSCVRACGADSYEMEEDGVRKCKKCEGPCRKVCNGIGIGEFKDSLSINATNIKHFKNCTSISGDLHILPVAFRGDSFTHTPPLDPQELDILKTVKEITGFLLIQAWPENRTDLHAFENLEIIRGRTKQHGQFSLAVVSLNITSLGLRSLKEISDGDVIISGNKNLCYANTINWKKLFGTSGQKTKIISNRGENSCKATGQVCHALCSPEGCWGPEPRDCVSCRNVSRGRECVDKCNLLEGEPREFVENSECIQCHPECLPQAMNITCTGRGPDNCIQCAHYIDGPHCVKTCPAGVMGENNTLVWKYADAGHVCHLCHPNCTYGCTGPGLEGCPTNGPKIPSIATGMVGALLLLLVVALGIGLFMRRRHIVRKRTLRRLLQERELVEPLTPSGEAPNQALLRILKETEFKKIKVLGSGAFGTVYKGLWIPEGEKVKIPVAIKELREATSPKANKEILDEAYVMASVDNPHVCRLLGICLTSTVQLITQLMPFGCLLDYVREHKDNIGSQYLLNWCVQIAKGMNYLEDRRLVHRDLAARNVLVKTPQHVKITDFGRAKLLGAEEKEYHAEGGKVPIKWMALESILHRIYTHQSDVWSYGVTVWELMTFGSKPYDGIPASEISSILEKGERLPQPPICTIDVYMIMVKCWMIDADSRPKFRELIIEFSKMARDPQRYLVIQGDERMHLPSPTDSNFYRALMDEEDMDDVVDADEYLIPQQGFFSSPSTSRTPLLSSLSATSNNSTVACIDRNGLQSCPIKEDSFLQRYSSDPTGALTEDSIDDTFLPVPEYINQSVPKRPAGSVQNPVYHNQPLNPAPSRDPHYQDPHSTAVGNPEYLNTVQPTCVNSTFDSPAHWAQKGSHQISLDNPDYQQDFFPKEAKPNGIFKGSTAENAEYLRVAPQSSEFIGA
T2 sequence (P00533 with tags, fused parts or gaps DEL746-750/T790M/C797S, form open): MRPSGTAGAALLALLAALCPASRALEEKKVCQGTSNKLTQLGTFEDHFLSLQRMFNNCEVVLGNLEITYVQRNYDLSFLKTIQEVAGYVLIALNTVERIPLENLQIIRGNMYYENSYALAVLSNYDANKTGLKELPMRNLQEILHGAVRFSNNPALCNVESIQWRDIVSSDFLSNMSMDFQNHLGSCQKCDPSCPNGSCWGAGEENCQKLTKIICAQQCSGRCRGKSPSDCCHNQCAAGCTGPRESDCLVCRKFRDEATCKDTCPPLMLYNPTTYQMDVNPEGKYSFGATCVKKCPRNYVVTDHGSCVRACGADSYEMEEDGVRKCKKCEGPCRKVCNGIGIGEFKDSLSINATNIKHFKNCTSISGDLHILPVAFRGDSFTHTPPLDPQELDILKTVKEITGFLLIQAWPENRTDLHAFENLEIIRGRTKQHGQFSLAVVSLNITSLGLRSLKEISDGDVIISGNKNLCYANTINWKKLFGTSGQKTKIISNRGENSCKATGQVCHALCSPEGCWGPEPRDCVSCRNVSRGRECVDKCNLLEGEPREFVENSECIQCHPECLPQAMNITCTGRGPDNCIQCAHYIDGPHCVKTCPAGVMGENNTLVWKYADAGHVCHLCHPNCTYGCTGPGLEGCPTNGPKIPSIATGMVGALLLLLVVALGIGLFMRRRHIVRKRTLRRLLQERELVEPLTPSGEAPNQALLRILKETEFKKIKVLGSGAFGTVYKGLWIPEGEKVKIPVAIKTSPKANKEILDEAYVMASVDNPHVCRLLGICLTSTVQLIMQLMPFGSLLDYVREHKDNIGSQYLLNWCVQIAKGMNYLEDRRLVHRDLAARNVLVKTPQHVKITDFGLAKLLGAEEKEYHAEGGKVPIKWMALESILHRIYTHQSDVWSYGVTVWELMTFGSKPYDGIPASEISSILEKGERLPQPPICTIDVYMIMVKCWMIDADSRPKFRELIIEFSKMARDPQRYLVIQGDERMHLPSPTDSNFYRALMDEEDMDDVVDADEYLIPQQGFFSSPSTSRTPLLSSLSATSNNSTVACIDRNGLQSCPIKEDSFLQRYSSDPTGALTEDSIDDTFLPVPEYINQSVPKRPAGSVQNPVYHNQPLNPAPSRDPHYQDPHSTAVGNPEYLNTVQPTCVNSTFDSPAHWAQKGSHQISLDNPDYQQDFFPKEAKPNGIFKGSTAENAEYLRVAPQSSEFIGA

IC50 [1, 7]	IC50 [2, 8]	IC50 [3, 9]	IC50 [4, 10]	IC50 [5, 11]	IC50 [6, 12]	IC50 [1, 13]	IC50 [2, 14]	IC50 [3, 15]	IC50 [4, 16]	IC50 [5, 17]	IC50 [6, 18]	Compound
50 to 500 nM	50 to 500 nM	50 to 500 nM	500 to 2500 nM	500 to 2500 nM	500 to 2500 nM	–	–	–	–	–	–	CCc1cc(Nc2nc(Nc3ccc4nccnc4c3N(C)S(C)(=O)=O)c3sccc3n2)c(OC)nc1N1CCC(N2CCN(C)CC2)CC1 [II-1-6]
–	–	–	–	–	–	50 to 500 nM	≤ 50 nM	50 to 500 nM	50 to 500 nM	50 to 500 nM	50 to 500 nM	COc1cc(N2CCC(N(C)C)C2)c(C)cc1Nc1ncc(C2CC2)c(Nc2ccc3nccnc3c2N(C)S(C)(=O)=O)n1 (stereo not drawn) [Compound I-274]
–	–	–	–	–	–	≤ 50 nM	≤ 50 nM	50 to 500 nM	50 to 500 nM	50 to 500 nM	≤ 50 nM	CCc1cc(Nc2ncc(Cl)c(Nc3ccc4nccnc4c3N(C)S(C)(=O)=O)n2)c(OC(F)(F)F)cc1N1CCC(N2CCN(C)CC2)CC1 [Compound I-22]
–	–	–	–	–	–	≤ 50 nM	≤ 50 nM	≤ 50 nM	≤ 50 nM	≤ 50 nM	≤ 50 nM	CCc1cc(Nc2ncc(Br)c(Nc3ccc4nccnc4c3N(C)S(C)(=O)=O)n2)c(OC)cc1N1CCC(N(C)C)C1 (stereo not drawn) [Compound I-17]
–	–	–	–	–	–	≤ 50 nM	≤ 50 nM	≤ 50 nM	≤ 50 nM	≤ 50 nM	≤ 50 nM	CCc1cc(Nc2ncc(C)c(Nc3ccc4nccnc4c3N(C)S(C)(=O)=O)n2)c(OC)cc1N1CCC(N2CCN(C)CC2)CC1 [Compound I-277]
50 to 500 nM	50 to 500 nM	50 to 500 nM	50 to 500 nM	500 to 2500 nM	500 to 2500 nM	–	–	–	–	–	–	COc1cc(N2CCC(N3CCN(C)CC3)CC2)c(CC2CC2)cc1Nc1nc(Nc2ccc3nccnc3c2N(C)S(C)(=O)=O)c2occc2n1 [II-1-43]
–	–	–	–	–	–	50 to 500 nM	50 to 500 nM	50 to 500 nM	50 to 500 nM	50 to 500 nM	50 to 500 nM	CN1CCN(S(=O)(=O)c2ccc(Nc3ncc(Br)c(Nc4ccc5nccnc5c4N(C)S(C)(=O)=O)n3)cc2)CC1 [Compound I-49]
–	–	–	–	–	–	50 to 500 nM	50 to 500 nM	500 to 2500 nM	500 to 2500 nM	500 to 2500 nM	500 to 2500 nM	COc1cc(N2CCC(N(C)C)CC2)c(C)cc1Nc1ncc(Cl)c(Nc2ccc3nccnc3c2N(C)S(=O)(=O)C(F)(F)F)n1 [Compound I-265]
–	–	–	–	–	–	50 to 500 nM	50 to 500 nM	500 to 2500 nM	500 to 2500 nM	500 to 2500 nM	50 to 500 nM	CCc1cc(Nc2ncc(Br)c(Nc3ccc4nccnc4c3N(C)S(=O)(=O)C(F)(F)F)n2)c(OC(F)(F)F)cc1N1CCC(N2CCN(C)CC2)CC1 [Compound I-126]
50 to 500 nM	≤ 50 nM	≤ 50 nM	50 to 500 nM	50 to 500 nM	≤ 50 nM	–	–	–	–	–	–	COc1cc(N2CCC(N3CCN(C)CC3)CC2)c(CC2CC2)cc1Nc1ncc(Br)c(Nc2ccc3nccnc3c2N(C2CC2)S(C)(=O)=O)n1 [Compound I-308]
–	–	–	–	–	–	500 to 2500 nM	500 to 2500 nM	50 to 500 nM	500 to 2500 nM	500 to 2500 nM	50 to 500 nM	CCN(c1c(Nc2nc(Nc3cc(C)c(N4CCC(N5CCN(C)CC5)CC4)nc3OC)ncc2Cl)ccc2nccnc12)S(C)(=O)=O [Compound I-226]
–	–	–	–	–	–	50 to 500 nM	50 to 500 nM	50 to 500 nM	50 to 500 nM	50 to 500 nM	50 to 500 nM	COc1ccc(NC(=O)CN(C)C)cc1Nc1ncc(Br)c(Nc2ccc3nccnc3c2N(C)S(C)(=O)=O)n1 [Compound I-85]
50 to 500 nM	≤ 50 nM	50 to 500 nM	50 to 500 nM	500 to 2500 nM	50 to 500 nM	–	–	–	–	–	–	CCc1cc(Nc2nc(Nc3ccc4nccnc4c3N(C)S(C)(=O)=O)c3sccc3n2)c(OC)cc1N1CCC(N(C)C)CC1 [II-1-16]
–	–	–	–	–	–	≤ 50 nM	≤ 50 nM	≤ 50 nM	≤ 50 nM	≤ 50 nM	≤ 50 nM	CCc1cc(Nc2ncc(Cl)c(Nc3ccc4nccnc4c3N(CC)S(C)(=O)=O)n2)c(OC)cc1N1CCC(N(C)C)CC1 [Compound I-112]
500 to 2500 nM	500 to 2500 nM	500 to 2500 nM	500 to 2500 nM	500 to 2500 nM	50 to 500 nM	–	–	–	–	–	–	COc1cc(N2CCC(N3CCN(C)CC3)CC2)c(Cc2ccccc2)cc1Nc1nc(Nc2ccc3nccnc3c2N(C)S(C)(=O)=O)c2sccc2n1 [II-1-11]
≤ 50 nM	≤ 50 nM	≤ 50 nM	≤ 50 nM	≤ 50 nM	≤ 50 nM	–	–	–	–	–	–	CCc1cc(Nc2ncc(Br)c(Nc3ccc4nccnc4c3NS(=O)(=O)C(C)C)n2)c(OC)cc1N1CCC(N2CCN(C)CC2)CC1 [Compound I-415]
–	–	–	–	–	–	50 to 500 nM	≤ 50 nM	≤ 50 nM	50 to 500 nM	50 to 500 nM	≤ 50 nM	COc1cc(N2CCC(N3CCN(C)CC3)CC2)c(CC2CC2)cc1Nc1ncc(C(F)(F)F)c(Nc2ccc3nccnc3c2N(C)S(C)(=O)=O)n1 [Compound I-203]
50 to 500 nM	500 to 2500 nM	50 to 500 nM	50 to 500 nM	50 to 500 nM	50 to 500 nM	–	–	–	–	–	–	CCOc1cnc(Nc2cc(C)c(N3CCC(N4CCN(C)CC4)CC3)cc2OC)nc1Nc1ccc2nccnc2c1N(C)S(C)(=O)=O [Compound I-336]
50 to 500 nM	≤ 50 nM	50 to 500 nM	50 to 500 nM	50 to 500 nM	50 to 500 nM	–	–	–	–	–	–	COc1cc(N2CCC(N3CCN(C)CC3)CC2)ccc1Nc1ncc(C)c(Nc2ccc3nccnc3c2N(C)S(C)(=O)=O)n1 [Compound I-313]
50 to 500 nM	50 to 500 nM	50 to 500 nM	50 to 500 nM	50 to 500 nM	50 to 500 nM	–	–	–	–	–	–	COc1cc(N2CCC(N3CCN(C)CC3)CC2)ccc1Nc1ncc(Br)c(Nc2ccc3nccnc3c2NS(=O)(=O)C(C)C)n1 [Compound I-413]
50 to 500 nM	≤ 50 nM	50 to 500 nM	500 to 2500 nM	500 to 2500 nM	50 to 500 nM	–	–	–	–	–	–	CCc1cc(Nc2nc(Nc3ccc4nccnc4c3N(C)S(C)(=O)=O)c3occc3n2)c(OC)nc1N1CCC(N2CCN(C)CC2)CC1 [II-1-39]
50 to 500 nM	500 to 2500 nM	50 to 500 nM	50 to 500 nM	50 to 500 nM	50 to 500 nM	–	–	–	–	–	–	CCOc1cnc(Nc2cc(CC)c(N3CCC(N4CCN(C)CC4)CC3)nc2OC)nc1Nc1ccc2nccnc2c1N(C)S(C)(=O)=O [Compound I-338]
–	–	–	–	–	–	≤ 50 nM	≤ 50 nM	≤ 50 nM	≤ 50 nM	50 to 500 nM	≤ 50 nM	CCc1cc(Nc2ncc(Cl)c(Nc3ccc4nccnc4c3N(C)S(C)(=O)=O)n2)c(OC)nc1N1CCC(N2CCN(C)CC2)CC1 [Compound I-21]
50 to 500 nM	50 to 500 nM	50 to 500 nM	500 to 2500 nM	500 to 2500 nM	50 to 500 nM	–	–	–	–	–	–	CCc1cc(Nc2nc(Nc3ccc4nccnc4c3N(C)S(C)(=O)=O)c3sccc3n2)c(OC(F)(F)F)cc1N1CCC(N2CCN(C)CC2)CC1 [II-1-8]
≤ 50 nM	≤ 50 nM	50 to 500 nM	50 to 500 nM	50 to 500 nM	50 to 500 nM	–	–	–	–	–	–	CCc1cc(Nc2ncc(Br)c(Nc3ccc4nccnc4c3N(C)S(C)(=O)=O)n2)c(OC)cc1NCCN(C)C [Compound I-391]
≤ 50 nM	≤ 50 nM	≤ 50 nM	50 to 500 nM	50 to 500 nM	50 to 500 nM	–	–	–	–	–	–	COc1ccc(N2CCC(O)CC2)cc1Nc1ncc(OC)c(Nc2ccc3nccnc3c2N(C)S(C)(=O)=O)n1 [Compound I-366]
